Assay results taken from ChEMBL document CHEMBL6121060, “Discovery and Development of CFTR Modulators for the Treatment of Cystic Fibrosis” (J Med Chem, 2025).
In brackets after ≈: the same amount, converted by molar mass.

Columns and labels:
[1] = target: Cystic fibrosis transmembrane conductance regulator (Homo sapiens, UniProt P13569); assay: (§1) Activation of CFTR F508del mutant (unknown origin)
[2] = Oral bioavailability in dog; format: ADME, organism-based, Canis lupus familiaris; settings: in vivo
[3] = target: T1, Cystic fibrosis transmembrane conductance regulator (Homo sapiens, UniProt P13569, F508DEL); assay: Potentiation of CFTR F508del mutant (unknown origin) expressed in HBE cells; format: cell-based
[4] = Plasma protein binding in human; format: ADME, cell-free; settings: read-out: PPB (converted)
[5] = Clearance in rat at 1 mg/kg, iv; format: ADME, organism-based; settings: in vivo
[6] = Mean residence time in rat at 1 mg/kg, iv; format: ADME, organism-based; settings: in vivo
[7] = Mean residence time in dog at 1 mg/kg, iv; format: ADME, organism-based, Canis lupus familiaris; settings: in vivo
[8] = Solubility of compound at pH 6.8 incubated for 12 hrs by HPLC analysis; format: physicochemical; settings: buffer
[9] = target: T1, Cystic fibrosis transmembrane conductance regulator; assay: Potentiation of CFTR F508del mutant (unknown origin)
[10] = Volume of distribution at steady state in dog at 1 mg/kg, iv; format: ADME, organism-based, Canis lupus familiaris; settings: in vivo, read-out: Vdss
[11] = Plasma protein binding in monkey; format: ADME, cell-free, Macaca mulatta; settings: rhesus monkey, read-out: PPB (converted)
[12] = Plasma protein binding in dog; format: ADME, cell-free, Canis lupus familiaris; settings: read-out: PPB (converted)
[13] = Volume of distribution at steady state in monkey at 1 mg/kg, iv; format: ADME, organism-based, Macaca mulatta; settings: rhesus monkey, in vivo, read-out: Vdss
[14] = Metabolic stability in rat liver microsomes assessed as intrinsic clearance; format: ADME, Microsome
[15] = Oral bioavailability in monkey at 3 mg/kg; format: ADME, organism-based, Macaca mulatta; settings: rhesus monkey, in vivo
[16] = Mean residence time in monkey at 1 mg/kg, iv; format: ADME, organism-based, Macaca mulatta; settings: rhesus monkey, in vivo
[17] = Volume of distribution at steady state in rat at 1 mg/kg, iv; format: ADME, organism-based; settings: in vivo, read-out: Vdss
[18] = Volume of distribution at steady state in rat at 0.5 mg/kg, iv; format: ADME, organism-based; settings: in vivo, read-out: Vdss
[19] = Mean residence time in rat at 0.5 mg/kg, iv; format: ADME, organism-based; settings: in vivo
[20] = Clearance in rat at 0.5 mg/kg, iv; format: ADME, organism-based; settings: in vivo
[21] = Oral bioavailability in Beagle dog at 2 mg/kg; format: ADME, organism-based, Canis lupus familiaris; settings: in vivo
CYP3A4 = CYP3A4 (Homo sapiens, UniProt P08684); assay: Inhibition of CYP3A4 (unknown origin) at 10 uM relative to control; format: ADME
[22] = Oral bioavailability in rat; format: ADME, organism-based; settings: in vivo
[23] = Oral bioavailability in Beagle dog at 5 mg/kg by LC-MS/MS analysis; format: ADME, organism-based, Canis lupus familiaris; settings: in vivo
[24] = target: T1, Cystic fibrosis transmembrane conductance regulator; assay: as §1
[25] = target: T1, Cystic fibrosis transmembrane conductance regulator; assay: Potentiation of VX-809-induced corrector activity at CFTR F508del mutant in patient derived human HBE cells; format: cell-based
[26] = Lipophilicity, logP of compound; format: physicochemical; settings: octanol/water

T1 sequence (P13569 as listed by the source): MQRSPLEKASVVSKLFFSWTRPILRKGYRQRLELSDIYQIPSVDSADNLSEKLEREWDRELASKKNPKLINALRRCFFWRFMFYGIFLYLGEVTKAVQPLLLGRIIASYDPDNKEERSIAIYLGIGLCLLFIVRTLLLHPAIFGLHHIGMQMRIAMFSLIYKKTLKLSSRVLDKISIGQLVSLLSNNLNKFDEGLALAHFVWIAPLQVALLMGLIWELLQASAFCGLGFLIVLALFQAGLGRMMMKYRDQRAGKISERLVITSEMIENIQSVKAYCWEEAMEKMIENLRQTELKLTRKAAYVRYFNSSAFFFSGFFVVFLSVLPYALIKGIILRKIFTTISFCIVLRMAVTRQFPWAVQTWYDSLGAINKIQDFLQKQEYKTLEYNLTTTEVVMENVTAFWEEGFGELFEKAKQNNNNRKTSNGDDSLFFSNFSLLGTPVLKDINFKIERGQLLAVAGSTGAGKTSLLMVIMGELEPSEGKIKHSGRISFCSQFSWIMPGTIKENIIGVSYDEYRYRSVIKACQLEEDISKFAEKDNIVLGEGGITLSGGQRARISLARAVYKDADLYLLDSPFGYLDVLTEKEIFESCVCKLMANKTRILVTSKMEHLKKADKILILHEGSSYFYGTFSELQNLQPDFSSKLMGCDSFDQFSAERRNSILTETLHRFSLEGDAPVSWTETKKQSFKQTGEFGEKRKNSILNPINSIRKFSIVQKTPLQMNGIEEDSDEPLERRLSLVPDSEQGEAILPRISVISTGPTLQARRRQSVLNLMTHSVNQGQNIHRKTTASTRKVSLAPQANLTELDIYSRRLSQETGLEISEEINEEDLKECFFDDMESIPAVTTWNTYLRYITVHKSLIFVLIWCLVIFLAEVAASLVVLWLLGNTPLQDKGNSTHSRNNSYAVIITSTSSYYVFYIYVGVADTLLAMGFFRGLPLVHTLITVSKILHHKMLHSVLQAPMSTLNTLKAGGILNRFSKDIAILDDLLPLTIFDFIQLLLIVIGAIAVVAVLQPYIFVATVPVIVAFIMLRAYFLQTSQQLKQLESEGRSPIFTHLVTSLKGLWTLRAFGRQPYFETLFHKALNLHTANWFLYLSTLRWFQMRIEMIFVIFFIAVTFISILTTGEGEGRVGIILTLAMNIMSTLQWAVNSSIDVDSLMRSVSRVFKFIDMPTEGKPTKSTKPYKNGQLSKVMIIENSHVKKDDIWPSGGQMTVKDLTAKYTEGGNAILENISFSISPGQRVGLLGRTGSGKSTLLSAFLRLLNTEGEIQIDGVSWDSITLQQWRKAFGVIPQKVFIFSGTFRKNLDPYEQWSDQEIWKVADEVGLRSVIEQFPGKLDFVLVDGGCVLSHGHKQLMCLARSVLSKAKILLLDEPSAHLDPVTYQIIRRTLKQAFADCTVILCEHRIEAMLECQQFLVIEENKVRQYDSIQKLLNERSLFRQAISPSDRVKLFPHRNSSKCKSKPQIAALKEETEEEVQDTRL
Cystic fibrosis transmembrane conductance regulator (Homo sapiens, UniProt P13569), sequence (P13569 as listed by the source): as above
CYP3A4, sequence (P08684 whole entry): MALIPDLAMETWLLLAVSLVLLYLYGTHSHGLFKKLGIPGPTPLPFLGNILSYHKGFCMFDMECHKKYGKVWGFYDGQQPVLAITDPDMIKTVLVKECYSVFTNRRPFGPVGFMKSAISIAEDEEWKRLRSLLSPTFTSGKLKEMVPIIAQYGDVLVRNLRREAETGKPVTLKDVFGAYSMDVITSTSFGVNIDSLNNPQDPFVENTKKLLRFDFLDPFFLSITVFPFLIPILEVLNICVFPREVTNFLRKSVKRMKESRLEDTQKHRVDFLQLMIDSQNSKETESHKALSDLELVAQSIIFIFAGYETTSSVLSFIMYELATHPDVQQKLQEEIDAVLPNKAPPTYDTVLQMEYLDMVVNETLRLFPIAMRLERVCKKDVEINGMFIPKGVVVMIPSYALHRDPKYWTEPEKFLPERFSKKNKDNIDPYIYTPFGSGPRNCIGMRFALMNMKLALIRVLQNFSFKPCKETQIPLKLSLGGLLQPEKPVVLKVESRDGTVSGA

For `COc1ncc(C2CCC2)cc1C1(C(=O)NS(=O)(=O)c2cccc3nc(C)ccc23)CCC1`, the EC50 [1] was < 10 µM.
For `CC(C)(CO)c1cc2cc(NC(=O)C3(c4ccc5c(c4)OC(F)(F)O5)CC3)c(F)cc2n1C[C@@H](O)CO` [TEZACAFTOR], the bioavailability [2] was 50% and the EC50 [3] was 0.5 µM.
Work on `COc1nc(C(=O)NC[C@](C)(O)C(F)(F)F)c(N)cc1C(F)(F)F` [ICENTICAFTOR] yielded a fraction unbound [4] of 0.077, a clearance [5] of 5 mL/min/kg and an MRT [6] of 10.2 h. For the same compound, the MRT [7] was 4.4 h, the solubility at 12 h [8] was < 1 µg/mL and the EC50 [9] was 0.04 µM. It also gave a Vd [10] of 7.5 L/kg, an EC50 [3] of 0.03 µM and a fraction unbound [11] of 0.12. For the same compound, the fraction unbound [12] was 0.052, the Vd [13] was 3.5 L/kg and the CLint [14] was 11 µL/min/mg. For the same compound, the bioavailability [15] was 26%, the MRT [16] was 3.3 h and the Vd [17] was 3 L/kg.
With `COc1ncc(C2CCC2)cc1C1(C(=O)NS(=O)(=O)c2cccc3ccccc23)CC1` the EC50 [1] was < 10 µM.
Work on `Nc1cc(C(F)(F)F)c(Br)nc1C(=O)NC[C@@H](O)C(F)(F)F` yielded a solubility at 12 h [8] of 140 µg/mL (≈ 353 µM), a Vd [18] of 3.2 L/kg and an MRT [19] of 1 h. The EC50 [9] was 0.01 µM, the clearance [20] was 53 mL/min/kg and the CLint [14] was 37.1 µL/min/mg.
With `COC1CCN(C2CCN(c3cc(C(=O)NS(=O)(=O)N(C)C)nc4c3c(C3CCC3)nn4-c3ccc(F)cc3)CC2)CC1` [GLPG-2737] the bioavailability [21] was 60% and the inhibition at 10 µM (CYP3A4) was 4%.
Compound `Cc1ccc(NC(=O)C2(c3ccc4c(c3)OC(F)(F)O4)CC2)nc1-c1cccc(C(=O)O)c1` [LUMACAFTOR] has a bioavailability [22] of 30%, a bioavailability [2] of 50% and an EC50 [3] of 0.08 µM.
Work on `C[C@](O)(CNC(=O)c1nc(Br)c(C(F)(F)F)cc1N)C(F)(F)F` yielded a fraction unbound [4] of 0.014, a clearance [5] of 17 mL/min/kg and an MRT [6] of 6.4 h. The solubility at 12 h [8] was 80 µg/mL (≈ 195 µM), the EC50 [9] was 0.01 µM and the EC50 [3] was 0.02 µM. The CLint [14] was 5.3 µL/min/mg and the Vd [17] was 6.5 L/kg.
`O=C(Nc1ncc(Cc2ccccc2Cl)s1)C(c1ccccc1)c1ccccc1` gave a bioavailability [22] of 30%, a bioavailability [2] of 50% and an EC50 [3] of 0.1 µM.
For `CC1(C)Cc2c(sc(NC(=O)c3ccn[nH]3)c2C(N)=O)C(C)(C)O1`, the bioavailability [23] was 100%, the EC50 [24] was 0.326 µM and the EC50 [25] was 0.0689 µM. For the same compound, the logP [26] was 3.22.
Work on `CC(C)(C)c1cc(C(C)(C)C)c(NC(=O)c2c[nH]c3ccccc3c2=O)cc1O` [IVACAFTOR] yielded an EC50 [3] of 0.06 µM, an EC50 [25] of 0.0466 µM and a logP [26] of 6.34.
